BindingDB's records for doi:10.1124/jpet.104.081539 (Kyowa Hakko Kogyo, 2005)

Key:
[1] = target: T1, Polyunsaturated fatty acid 5-lipoxygenase (Homo sapiens, UniProt P09917)
T1 sequence (P09917 whole entry): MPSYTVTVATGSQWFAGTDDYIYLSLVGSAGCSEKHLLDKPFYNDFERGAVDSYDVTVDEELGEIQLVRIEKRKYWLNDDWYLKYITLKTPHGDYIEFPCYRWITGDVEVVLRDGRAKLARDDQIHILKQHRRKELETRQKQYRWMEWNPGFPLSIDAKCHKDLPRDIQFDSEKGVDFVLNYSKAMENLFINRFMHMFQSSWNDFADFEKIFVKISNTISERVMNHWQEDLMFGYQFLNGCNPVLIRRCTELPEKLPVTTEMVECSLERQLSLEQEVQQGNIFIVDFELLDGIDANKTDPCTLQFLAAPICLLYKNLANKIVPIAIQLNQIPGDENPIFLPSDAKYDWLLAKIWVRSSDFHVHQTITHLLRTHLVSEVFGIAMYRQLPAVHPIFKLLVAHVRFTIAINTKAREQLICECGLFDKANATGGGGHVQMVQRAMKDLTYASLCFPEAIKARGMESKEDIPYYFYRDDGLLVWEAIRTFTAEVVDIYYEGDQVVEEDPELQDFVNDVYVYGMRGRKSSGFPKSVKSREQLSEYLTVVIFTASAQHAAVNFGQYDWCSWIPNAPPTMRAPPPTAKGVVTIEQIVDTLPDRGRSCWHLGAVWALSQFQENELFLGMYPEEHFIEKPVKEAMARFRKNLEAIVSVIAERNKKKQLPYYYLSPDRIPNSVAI

Histamine H2 receptor = Histamine H2 receptor (Homo sapiens, UniProt P25021)
Chain of Histamine H2 receptor (P25021 whole entry): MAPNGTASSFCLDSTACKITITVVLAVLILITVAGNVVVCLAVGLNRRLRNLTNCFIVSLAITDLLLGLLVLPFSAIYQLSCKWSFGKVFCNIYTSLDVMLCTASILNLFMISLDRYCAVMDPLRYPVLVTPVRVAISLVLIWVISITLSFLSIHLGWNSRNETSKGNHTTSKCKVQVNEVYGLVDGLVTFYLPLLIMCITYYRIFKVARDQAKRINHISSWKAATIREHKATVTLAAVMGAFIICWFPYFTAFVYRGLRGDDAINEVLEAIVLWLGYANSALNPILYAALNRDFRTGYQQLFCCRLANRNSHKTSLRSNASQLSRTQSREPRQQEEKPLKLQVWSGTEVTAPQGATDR

[2] = target: Platelet-activating factor receptor (Homo sapiens, UniProt P25105)
Chain of Platelet-activating factor receptor (P25105 whole entry): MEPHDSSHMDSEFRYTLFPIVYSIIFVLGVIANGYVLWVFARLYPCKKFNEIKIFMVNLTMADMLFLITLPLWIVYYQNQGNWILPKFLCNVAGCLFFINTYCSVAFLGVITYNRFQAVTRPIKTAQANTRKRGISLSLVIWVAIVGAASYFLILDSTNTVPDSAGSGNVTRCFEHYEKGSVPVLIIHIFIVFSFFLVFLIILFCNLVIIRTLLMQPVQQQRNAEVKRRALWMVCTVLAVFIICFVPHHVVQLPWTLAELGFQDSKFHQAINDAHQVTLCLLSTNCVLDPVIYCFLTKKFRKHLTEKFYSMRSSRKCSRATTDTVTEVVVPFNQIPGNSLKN

[3] = target: T2, Prostaglandin D2 receptor (Homo sapiens, UniProt Q13258)
T2 sequence (Q13258 whole entry): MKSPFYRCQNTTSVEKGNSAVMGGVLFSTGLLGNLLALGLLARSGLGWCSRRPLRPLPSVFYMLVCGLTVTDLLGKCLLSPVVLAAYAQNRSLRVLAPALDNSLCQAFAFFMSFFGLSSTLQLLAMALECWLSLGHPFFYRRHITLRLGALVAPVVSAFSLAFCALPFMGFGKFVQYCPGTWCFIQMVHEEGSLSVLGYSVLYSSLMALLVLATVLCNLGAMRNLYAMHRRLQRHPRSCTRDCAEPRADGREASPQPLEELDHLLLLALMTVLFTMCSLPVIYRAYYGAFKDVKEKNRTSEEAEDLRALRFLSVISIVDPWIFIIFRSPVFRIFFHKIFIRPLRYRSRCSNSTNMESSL

[4] = target: T3, Cysteinyl leukotriene receptor 1 (Homo sapiens, UniProt Q9Y271)
T3 sequence (Q9Y271 whole entry): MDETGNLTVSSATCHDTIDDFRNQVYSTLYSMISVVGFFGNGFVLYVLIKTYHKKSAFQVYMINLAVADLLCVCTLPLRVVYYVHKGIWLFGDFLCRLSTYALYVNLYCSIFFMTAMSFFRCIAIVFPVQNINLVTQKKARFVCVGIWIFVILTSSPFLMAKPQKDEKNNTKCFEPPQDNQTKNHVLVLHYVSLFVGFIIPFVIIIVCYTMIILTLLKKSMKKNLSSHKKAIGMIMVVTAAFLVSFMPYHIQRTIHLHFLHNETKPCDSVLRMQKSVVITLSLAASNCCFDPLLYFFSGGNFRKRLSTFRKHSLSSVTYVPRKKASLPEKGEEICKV

[5] = target: T4, Alpha-2A adrenergic receptor [16-465] (Rattus norvegicus, UniProt P22909)
T4 construct: 16-465
T4 sequence (P22909 whole entry): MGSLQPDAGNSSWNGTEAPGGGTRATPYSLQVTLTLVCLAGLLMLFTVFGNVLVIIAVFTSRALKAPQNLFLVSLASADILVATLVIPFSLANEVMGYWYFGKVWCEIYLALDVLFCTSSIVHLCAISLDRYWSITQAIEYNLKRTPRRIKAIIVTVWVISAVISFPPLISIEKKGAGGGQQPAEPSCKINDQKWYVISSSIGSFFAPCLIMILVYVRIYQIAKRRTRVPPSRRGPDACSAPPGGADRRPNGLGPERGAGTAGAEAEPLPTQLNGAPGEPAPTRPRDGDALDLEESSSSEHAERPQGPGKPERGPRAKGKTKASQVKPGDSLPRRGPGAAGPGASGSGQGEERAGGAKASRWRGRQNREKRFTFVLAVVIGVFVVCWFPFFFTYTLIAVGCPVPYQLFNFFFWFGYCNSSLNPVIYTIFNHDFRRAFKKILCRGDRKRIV

Thromboxane-A synthase = target: T5, Thromboxane-A synthase (Homo sapiens, UniProt P24557)
T5 sequence (P24557 whole entry): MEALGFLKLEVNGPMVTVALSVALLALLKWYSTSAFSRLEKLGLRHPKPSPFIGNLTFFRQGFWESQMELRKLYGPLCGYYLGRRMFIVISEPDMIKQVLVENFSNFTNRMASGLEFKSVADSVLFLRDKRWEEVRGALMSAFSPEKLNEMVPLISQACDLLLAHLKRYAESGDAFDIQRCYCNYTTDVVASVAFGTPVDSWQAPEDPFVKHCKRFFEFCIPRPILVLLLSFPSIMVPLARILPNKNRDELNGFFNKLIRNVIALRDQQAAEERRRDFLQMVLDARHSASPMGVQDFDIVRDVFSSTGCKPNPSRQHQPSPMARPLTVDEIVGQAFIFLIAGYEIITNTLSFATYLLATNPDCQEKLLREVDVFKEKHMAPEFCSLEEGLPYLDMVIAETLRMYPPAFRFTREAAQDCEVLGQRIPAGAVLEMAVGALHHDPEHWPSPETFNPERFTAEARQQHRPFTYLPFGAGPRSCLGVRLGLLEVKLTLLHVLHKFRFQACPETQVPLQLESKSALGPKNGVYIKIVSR

D(2) dopamine receptor = D(2) dopamine receptor (Homo sapiens, UniProt P14416)
Chain of D(2) dopamine receptor (P14416 whole entry): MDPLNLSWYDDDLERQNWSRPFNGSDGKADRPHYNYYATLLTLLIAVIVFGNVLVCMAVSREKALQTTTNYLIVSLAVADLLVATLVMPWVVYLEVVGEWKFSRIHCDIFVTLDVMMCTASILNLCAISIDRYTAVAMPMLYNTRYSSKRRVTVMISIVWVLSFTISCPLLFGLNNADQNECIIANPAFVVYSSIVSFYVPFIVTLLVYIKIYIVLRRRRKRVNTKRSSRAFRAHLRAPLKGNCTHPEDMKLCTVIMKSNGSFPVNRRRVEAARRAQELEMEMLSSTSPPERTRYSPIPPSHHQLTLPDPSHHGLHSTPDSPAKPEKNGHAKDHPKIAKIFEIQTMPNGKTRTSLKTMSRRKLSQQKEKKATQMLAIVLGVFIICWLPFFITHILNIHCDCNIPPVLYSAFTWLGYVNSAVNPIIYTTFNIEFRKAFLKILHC

[6] = target: 5-hydroxytryptamine receptor 2A (Rattus norvegicus, UniProt P14842)
Chain of 5-hydroxytryptamine receptor 2A (P14842 whole entry): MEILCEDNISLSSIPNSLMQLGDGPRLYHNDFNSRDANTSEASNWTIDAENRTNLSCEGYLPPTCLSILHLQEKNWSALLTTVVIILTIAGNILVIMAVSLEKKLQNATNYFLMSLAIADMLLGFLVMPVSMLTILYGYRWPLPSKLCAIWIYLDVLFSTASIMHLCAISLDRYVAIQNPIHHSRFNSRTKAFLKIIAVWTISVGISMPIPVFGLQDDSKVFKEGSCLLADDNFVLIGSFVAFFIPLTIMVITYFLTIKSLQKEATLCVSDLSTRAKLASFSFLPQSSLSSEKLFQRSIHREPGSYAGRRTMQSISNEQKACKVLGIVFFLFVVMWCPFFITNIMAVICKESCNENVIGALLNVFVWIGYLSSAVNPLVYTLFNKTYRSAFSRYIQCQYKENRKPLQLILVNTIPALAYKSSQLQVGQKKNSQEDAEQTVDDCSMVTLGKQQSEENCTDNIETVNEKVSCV

D(1A) dopamine receptor = D(1A) dopamine receptor (Homo sapiens, UniProt P21728)
Chain of D(1A) dopamine receptor (P21728 whole entry): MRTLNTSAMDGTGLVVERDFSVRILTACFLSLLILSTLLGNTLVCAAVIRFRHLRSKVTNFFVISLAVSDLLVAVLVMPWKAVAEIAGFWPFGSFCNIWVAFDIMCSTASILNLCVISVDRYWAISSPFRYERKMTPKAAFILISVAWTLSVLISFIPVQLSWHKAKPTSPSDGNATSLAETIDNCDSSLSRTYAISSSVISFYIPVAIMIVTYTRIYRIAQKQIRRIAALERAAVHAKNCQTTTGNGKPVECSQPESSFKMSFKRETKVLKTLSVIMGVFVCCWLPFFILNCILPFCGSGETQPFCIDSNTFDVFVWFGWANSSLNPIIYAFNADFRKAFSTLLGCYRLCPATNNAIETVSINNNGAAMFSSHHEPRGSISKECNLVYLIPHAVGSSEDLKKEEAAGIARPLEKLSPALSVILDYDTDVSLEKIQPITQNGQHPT

Ki [1] [µM] | Ki (Histamine H2 receptor) [µM] | Ki [2] [µM] | Ki [3] [µM] | Ki [4] [µM] | Ki [5] [µM] | Ki (Thromboxane-A synthase) [µM] | Ki (D(2) dopamine receptor) [µM] | Ki [6] [µM] | Ki (D(1A) dopamine receptor) [µM] | Structure (SMILES)
> 1 | > 1 | > 1 | > 1 | > 1 | > 1 | > 1 | > 1 | > 1 | > 1 | CC(C)C(=O)N(c1ccccc1)C1CC(C)N(C(=O)c2ccccc2)c2ccccc21 (stereo not given) [K117]
> 1 | > 1 | > 1 | > 1 | > 1 | > 1 | > 1 | > 1 | > 1 | > 1 | CCC(=O)N1c2ccccc2C(N(C(C)=O)c2ccccc2)CC1C (stereo not given) [K376]
> 1 | > 1 | > 1 | > 1 | > 1 | > 1 | > 1 | > 1 | > 1 | > 1 | CC1CC(N(C(=O)C2CC2)c2ccccc2)c2ccccc2N1C(=O)c1ccccc1 (stereo not given) [K604]
